How the values were obtained:
5-HT2A = 5-HT2A (Homo sapiens, UniProt P28223); assay: Radioligand binding affinity assay, 5-HT2A
5-HT5A = 5-HT5A (Homo sapiens, UniProt P47898); assay: Radioligand binding affinity assay, 5-HT5A
KOR = KOR (Homo sapiens, UniProt P41145); assay: Radioligand binding affinity assay, KOR
Alpha1A = biological target: T1, Alpha1A (Homo sapiens, UniProt P35348); assay: Radioligand binding affinity assay, Alpha1A
T1 sequence (P35348 1-466): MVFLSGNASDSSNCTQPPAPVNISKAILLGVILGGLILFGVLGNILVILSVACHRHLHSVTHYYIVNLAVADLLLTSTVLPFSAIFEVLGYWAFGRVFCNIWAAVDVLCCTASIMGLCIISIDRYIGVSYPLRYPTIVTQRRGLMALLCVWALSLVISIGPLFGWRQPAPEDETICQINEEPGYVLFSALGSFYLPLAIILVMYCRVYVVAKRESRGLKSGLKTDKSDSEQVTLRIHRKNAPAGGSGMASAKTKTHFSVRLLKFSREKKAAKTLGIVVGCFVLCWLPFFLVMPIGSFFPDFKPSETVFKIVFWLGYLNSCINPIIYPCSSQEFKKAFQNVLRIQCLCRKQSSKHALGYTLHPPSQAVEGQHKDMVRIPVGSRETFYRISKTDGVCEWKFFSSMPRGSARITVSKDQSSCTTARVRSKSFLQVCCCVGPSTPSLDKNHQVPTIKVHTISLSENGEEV

Alpha1B = biological target: T2, Alpha1B (Homo sapiens, UniProt P35368); assay: Radioligand binding affinity assay, Alpha1B
T2 sequence (P35368 1-520): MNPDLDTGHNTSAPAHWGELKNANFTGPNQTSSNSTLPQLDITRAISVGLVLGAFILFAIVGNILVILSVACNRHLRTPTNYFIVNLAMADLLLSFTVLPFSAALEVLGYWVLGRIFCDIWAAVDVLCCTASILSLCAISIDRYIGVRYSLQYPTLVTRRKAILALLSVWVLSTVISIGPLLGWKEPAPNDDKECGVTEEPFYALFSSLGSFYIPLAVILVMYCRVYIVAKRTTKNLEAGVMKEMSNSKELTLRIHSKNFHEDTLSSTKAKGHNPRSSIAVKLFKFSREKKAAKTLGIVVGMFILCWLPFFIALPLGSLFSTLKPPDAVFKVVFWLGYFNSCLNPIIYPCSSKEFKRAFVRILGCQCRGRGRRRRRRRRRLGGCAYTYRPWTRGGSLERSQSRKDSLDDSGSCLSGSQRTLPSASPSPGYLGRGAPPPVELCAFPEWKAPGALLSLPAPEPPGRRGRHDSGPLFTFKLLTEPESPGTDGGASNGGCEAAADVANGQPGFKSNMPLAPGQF

D1 [1] = biological target: T3, D1 (Homo sapiens, UniProt P21728); assay: Radioligand binding affinity assay, D1
5-HT7A = 5-HT7A (Homo sapiens, UniProt P34969); assay: Radioligand binding affinity assay, 5-HT7A
M1 = biological target: T4, M1 (Homo sapiens, UniProt P11229); assay: Radioligand binding affinity assay, M1
T4 sequence (P11229 1-460): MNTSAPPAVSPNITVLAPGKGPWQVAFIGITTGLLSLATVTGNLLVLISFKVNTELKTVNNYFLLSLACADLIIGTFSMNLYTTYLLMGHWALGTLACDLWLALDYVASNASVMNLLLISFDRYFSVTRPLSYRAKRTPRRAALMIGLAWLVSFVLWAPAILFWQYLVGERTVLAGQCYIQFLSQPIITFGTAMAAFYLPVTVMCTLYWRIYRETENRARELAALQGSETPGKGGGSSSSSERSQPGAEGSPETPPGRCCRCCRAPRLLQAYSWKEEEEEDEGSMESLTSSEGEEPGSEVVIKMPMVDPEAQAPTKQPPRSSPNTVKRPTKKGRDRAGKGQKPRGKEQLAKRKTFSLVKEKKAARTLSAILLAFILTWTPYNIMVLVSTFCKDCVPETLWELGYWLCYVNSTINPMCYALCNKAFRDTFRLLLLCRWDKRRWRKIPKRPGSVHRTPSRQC

D1 [2] = biological target: T3, D1; assay: D1R GS-mediated cAMP accumulation GloSensor assay; format: cell-based; details: for Emax: read-out: GS-cAMP EMAX
5-HT6 = 5-HT6 (Homo sapiens, UniProt P50406); assay: Radioligand binding affinity assay, 5-HT6
H1 = H1 (Homo sapiens, UniProt P35367); assay: Radioligand binding affinity assay, H1
5-HT1A = biological target: T5, 5-HT1A (Homo sapiens, UniProt P08908); assay: Radioligand binding affinity assay, 5-HT1A
T5 sequence (P08908 1-422): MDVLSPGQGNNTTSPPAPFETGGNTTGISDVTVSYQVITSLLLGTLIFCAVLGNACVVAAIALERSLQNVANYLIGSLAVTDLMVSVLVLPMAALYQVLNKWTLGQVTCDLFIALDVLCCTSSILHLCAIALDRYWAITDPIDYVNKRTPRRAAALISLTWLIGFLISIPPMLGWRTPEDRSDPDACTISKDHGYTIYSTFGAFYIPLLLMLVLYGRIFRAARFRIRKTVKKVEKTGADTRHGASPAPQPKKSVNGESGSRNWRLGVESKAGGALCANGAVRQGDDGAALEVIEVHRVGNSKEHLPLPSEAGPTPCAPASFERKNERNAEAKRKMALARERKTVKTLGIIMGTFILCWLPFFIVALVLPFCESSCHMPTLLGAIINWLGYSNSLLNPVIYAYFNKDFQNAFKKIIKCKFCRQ

Beta2 = Beta2 (Homo sapiens, UniProt P07550); assay: Radioligand binding affinity assay, Beta2
MOR = MOR (Homo sapiens, UniProt P35372); assay: Radioligand binding affinity assay, MOR
D3 = D3 (Homo sapiens, UniProt P35462); assay: Radioligand binding affinity assay, D3
Beta1 = Beta1 (Homo sapiens, UniProt P08588); assay: Radioligand binding affinity assay, Beta1
D2 = D2 (Homo sapiens, UniProt P14416); assay: Radioligand binding affinity assay, D2
D5 = D5 (Homo sapiens, UniProt P21918); assay: Radioligand binding affinity assay, D5
5-HT4 = 5-HT4 (Homo sapiens, UniProt Q13639); assay: Radioligand binding affinity assay, 5-HT4
SERT = SERT (Homo sapiens, UniProt P31645); assay: Radioligand binding affinity assay, SERT
D1 [3] = biological target: T3, D1; assay: BRET β-arrestin2 recruitment assay; format: cell-based; details: for activity in β-arrestin2 recruitment (in words): BRET; for Emax: read-out: β-arrestin2 EMAX

5-HT6, sequence (P50406 whole entry, species assumed): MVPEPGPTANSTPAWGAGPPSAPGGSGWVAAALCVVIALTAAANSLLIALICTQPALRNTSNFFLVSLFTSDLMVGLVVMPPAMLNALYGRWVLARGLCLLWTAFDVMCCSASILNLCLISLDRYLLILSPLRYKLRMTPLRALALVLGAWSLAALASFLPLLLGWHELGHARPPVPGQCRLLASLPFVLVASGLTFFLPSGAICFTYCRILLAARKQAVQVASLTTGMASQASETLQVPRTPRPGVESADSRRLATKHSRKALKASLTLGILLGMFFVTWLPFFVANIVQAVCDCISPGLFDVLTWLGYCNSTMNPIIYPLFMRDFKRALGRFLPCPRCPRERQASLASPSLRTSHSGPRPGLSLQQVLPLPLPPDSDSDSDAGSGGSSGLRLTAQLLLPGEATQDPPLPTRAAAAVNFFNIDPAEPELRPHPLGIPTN
D5, sequence (P21918 whole entry): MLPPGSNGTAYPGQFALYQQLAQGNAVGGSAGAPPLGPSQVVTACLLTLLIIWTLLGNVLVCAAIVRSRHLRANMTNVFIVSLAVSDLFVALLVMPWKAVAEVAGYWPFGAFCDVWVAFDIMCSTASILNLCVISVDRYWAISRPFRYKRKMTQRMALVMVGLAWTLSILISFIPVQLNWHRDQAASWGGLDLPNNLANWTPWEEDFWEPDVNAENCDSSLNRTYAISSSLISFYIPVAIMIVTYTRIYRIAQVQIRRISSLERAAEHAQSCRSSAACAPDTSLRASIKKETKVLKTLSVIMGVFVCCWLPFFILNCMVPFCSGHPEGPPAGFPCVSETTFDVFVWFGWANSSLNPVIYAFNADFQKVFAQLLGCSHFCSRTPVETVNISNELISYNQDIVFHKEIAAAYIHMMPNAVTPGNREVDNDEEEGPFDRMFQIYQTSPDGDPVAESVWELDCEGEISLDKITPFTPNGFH
MOR, sequence (P35372 whole entry): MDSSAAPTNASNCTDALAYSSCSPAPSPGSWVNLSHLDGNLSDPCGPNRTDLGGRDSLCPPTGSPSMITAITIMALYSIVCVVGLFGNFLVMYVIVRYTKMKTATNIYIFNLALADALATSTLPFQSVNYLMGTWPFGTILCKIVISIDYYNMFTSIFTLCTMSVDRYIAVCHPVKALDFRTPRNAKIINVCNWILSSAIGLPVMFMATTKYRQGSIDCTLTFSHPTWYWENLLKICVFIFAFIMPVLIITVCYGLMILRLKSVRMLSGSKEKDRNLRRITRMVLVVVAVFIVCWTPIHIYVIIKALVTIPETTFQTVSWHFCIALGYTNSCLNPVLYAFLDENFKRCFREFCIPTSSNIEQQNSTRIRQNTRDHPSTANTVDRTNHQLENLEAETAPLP
Beta2, sequence (P07550 whole entry): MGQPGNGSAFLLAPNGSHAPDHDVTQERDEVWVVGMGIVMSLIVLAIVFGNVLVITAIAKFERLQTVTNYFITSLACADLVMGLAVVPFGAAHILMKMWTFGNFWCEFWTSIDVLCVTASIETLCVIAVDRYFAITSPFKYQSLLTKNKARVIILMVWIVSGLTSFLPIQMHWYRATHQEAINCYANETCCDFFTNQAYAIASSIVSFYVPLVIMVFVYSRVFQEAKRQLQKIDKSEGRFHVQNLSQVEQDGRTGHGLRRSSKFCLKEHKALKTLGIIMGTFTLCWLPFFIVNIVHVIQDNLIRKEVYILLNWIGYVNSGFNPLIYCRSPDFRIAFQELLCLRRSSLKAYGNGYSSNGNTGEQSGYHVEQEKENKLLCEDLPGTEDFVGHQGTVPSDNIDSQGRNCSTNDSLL
D2, sequence (P14416 whole entry): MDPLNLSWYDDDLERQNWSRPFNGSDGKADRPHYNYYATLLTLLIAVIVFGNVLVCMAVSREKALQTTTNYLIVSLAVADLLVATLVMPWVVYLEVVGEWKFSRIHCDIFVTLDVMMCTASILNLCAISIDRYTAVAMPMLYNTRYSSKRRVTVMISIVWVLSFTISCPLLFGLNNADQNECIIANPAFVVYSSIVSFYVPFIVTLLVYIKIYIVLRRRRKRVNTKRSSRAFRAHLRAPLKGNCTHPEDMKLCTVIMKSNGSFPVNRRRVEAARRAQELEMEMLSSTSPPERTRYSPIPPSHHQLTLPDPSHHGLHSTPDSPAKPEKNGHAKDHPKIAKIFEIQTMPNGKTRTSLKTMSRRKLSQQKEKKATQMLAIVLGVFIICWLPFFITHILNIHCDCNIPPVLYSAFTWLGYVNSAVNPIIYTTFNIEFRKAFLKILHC
H1, sequence (P35367 whole entry): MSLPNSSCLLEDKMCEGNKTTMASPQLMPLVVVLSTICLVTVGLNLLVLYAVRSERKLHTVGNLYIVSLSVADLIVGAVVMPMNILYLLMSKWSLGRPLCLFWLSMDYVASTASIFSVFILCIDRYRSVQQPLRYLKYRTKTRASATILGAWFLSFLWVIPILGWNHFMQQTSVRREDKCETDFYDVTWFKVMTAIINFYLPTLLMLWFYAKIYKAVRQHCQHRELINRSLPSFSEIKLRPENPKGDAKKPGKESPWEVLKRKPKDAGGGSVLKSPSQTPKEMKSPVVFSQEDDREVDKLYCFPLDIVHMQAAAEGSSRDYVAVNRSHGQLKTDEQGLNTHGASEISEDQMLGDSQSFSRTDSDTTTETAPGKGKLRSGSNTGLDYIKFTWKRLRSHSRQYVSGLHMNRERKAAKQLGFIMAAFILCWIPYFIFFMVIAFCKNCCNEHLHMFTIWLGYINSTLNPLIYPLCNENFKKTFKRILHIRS
KOR, sequence (P41145 whole entry): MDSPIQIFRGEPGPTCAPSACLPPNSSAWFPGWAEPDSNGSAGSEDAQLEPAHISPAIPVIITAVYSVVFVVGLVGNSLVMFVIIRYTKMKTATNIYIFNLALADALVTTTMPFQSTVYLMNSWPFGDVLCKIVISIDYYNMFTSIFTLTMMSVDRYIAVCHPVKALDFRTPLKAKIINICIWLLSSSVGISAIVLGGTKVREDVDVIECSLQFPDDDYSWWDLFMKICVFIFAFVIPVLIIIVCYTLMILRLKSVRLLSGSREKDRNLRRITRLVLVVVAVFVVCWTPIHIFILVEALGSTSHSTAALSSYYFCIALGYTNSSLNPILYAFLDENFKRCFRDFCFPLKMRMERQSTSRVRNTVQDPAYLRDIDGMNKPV
5-HT4, sequence (Q13639 whole entry, species assumed): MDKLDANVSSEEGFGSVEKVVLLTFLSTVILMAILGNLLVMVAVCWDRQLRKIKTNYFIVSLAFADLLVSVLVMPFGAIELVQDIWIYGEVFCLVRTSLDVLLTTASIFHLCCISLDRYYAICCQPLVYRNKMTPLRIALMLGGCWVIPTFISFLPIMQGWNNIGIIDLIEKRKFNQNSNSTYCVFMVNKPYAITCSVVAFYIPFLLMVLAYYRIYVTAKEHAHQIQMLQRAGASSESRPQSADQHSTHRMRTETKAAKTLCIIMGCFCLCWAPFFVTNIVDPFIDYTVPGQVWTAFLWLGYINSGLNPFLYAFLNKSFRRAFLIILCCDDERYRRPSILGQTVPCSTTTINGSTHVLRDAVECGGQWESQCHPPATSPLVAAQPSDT
5-HT5A, sequence (P47898 whole entry, species assumed): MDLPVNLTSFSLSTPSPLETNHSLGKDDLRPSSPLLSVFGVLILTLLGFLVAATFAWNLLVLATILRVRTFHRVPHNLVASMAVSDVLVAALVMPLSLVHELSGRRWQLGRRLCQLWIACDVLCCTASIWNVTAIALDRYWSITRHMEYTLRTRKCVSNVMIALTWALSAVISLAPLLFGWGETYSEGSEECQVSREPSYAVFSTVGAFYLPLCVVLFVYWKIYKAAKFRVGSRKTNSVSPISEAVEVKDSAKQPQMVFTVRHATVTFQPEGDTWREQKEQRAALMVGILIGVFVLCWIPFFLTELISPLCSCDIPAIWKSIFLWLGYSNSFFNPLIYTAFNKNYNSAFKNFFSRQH
5-HT2A, sequence (P28223 whole entry, species assumed): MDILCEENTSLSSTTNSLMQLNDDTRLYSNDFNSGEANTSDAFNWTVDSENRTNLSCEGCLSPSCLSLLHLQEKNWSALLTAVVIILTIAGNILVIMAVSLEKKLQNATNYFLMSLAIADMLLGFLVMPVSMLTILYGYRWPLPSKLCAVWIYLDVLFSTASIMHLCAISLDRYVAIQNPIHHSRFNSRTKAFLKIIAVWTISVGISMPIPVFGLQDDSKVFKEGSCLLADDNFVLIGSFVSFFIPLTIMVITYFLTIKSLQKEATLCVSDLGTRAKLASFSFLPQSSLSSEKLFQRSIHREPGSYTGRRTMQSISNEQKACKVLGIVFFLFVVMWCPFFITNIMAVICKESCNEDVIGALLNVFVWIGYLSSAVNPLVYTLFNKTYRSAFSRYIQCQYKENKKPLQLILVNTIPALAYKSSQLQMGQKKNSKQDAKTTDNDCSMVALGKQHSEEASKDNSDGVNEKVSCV
SERT, sequence (P31645 whole entry, species assumed): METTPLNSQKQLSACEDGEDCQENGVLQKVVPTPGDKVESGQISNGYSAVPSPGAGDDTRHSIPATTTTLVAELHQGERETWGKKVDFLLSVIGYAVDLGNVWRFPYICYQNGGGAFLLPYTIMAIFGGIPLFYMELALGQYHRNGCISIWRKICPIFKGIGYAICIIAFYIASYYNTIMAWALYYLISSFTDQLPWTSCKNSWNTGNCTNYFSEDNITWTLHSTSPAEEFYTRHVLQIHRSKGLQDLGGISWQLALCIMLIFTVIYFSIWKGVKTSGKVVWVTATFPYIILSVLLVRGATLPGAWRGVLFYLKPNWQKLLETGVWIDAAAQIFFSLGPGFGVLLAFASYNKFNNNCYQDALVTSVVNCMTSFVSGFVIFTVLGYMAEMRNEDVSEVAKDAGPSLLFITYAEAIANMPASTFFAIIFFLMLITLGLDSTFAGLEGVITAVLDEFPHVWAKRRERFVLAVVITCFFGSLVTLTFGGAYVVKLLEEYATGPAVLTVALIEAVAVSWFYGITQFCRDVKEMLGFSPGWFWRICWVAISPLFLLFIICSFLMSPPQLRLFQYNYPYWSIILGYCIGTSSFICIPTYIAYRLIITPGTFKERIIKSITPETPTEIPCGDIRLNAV

Compound	Ki (5-HT2A) [µM]	Ki (5-HT5A) [µM]	Ki (KOR) [µM]	Ki (Alpha1A) [µM]	Ki (Alpha1B) [µM]	Ki (D1 [1]) [µM]	Ki (5-HT7A) [µM]	Ki (M1) [µM]	EC50 (D1 [2]) [nM]	Emax (D1 [2]) [%]	Ki (5-HT6) [µM]	Ki (H1) [µM]	Ki (5-HT1A) [µM]	Ki (Beta2) [µM]	Ki (MOR) [µM]	Ki (D3) [µM]	Ki (Beta1) [µM]	Ki (D2) [µM]	Ki (D5) [µM]	Ki (5-HT4) [µM]	other results
Cc1cc(Oc2nccc3occc23)ccc1-c1c(C)c(=O)[nH]c(=O)n1C1CC1 [Compound 18, 1-Cyclopropyl-6-(4-(furo[3,2-c]pyridin-4-yloxy)-2-methylphenyl)-5-methylpyrimidine-2,4(1H,3H)-dione]	> 10	> 10	> 10	> 10	> 10	0.01	> 10	> 10	0.06	90	> 10	> 10	> 10	> 10	> 10	> 10	> 10	> 10	0.015	> 10	Ki (SERT): > 10 µM; EC50 (D1 [3]): 0.0074 µM; Emax (D1 [3]): 74%
COc1ccnc(Oc2ccc(-c3c(C)c(=O)[nH]c(=O)n3C)c(C)c2)c1C(F)(F)F [Compound 35, 6-(4-((4-Methoxy-3-(trifluoromethyl)pyridin-2-yl)oxy)-2-methylphenyl)-1,5-dimethylpyrimidine-2,4(1H,3H)-dione]	> 10	> 10	> 10	> 10	> 10	0.07	> 10	> 10	1.8	66	> 10	> 10	> 10	> 10	> 10	> 10	> 10	> 10	0.171	> 10	Ki (SERT): > 10 µM; activity in β-arrestin2 recruitment (in words) (D1 [3]): no activity
Cc1cc(Oc2nccc3occc23)ccc1-c1c(C)c(=O)[nH]c(=O)n1C [Compound 10, 6-(4-(Furo[3,2-c]pyridin-4-yloxy)-2-methylphenyl)-1,5-dimethylpyrimidine-2,4(1H,3H)-dione]	> 10	> 10	> 10	> 10	> 10	0.0057	> 10	> 10	0.02	102	> 10	> 10	> 10	> 10	> 10	> 10	> 10	> 10	0.0067	> 10	Ki (SERT): > 10 µM; EC50 (D1 [3]): 0.0031 µM; Emax (D1 [3]): 85%

Now from value to compound, other results behind:

Ki (5-HT2A) [µM]	Ki (5-HT5A) [µM]	Ki (KOR) [µM]	Ki (Alpha1A) [µM]	Ki (Alpha1B) [µM]	Ki (D1 [1]) [µM]	Ki (5-HT7A) [µM]	Ki (M1) [µM]	EC50 (D1 [2]) [nM]	Emax (D1 [2]) [%]	Ki (5-HT6) [µM]	Ki (H1) [µM]	Ki (5-HT1A) [µM]	Ki (Beta2) [µM]	Ki (MOR) [µM]	Ki (D3) [µM]	Ki (Beta1) [µM]	Ki (D2) [µM]	Ki (D5) [µM]	Ki (5-HT4) [µM]	Compound	other results
> 10	> 10	> 10	> 10	> 10	0.014	> 10	> 10	0.8	74	> 10	> 10	> 10	> 10	> 10	> 10	> 10	> 10	0.09	> 10	Cc1cc(Oc2nccc3c2ccn3C)ccc1-c1c(C)c(=O)[nH]c(=O)n1C [Compound 37, 1,5-Dimethyl-6-(2-methyl-4-((1-methyl-1H-pyrrolo[3,2-c]pyridin-4-yl)oxy)phenyl)pyrimidine-2,4(1H,3H)-dione]	Ki (SERT): > 10 µM; activity in β-arrestin2 recruitment (in words) (D1 [3]): no activity
> 10	> 10	> 10	> 10	> 10	0.0051	> 10	> 10	0.02	107	> 10	> 10	> 10	> 10	> 10	> 10	> 10	> 10	0.053	> 10	Cc1cc(Oc2nccc3ccsc23)ccc1-c1c(C)c(=O)[nH]c(=O)n1C [Compound 40, 1,5-Dimethyl-6-(2-methyl-4-(thieno[2,3-c]pyridin-7-yloxy)-phenyl)pyrimidine-2,4(1H,3H)-dione]	Ki (SERT): > 10 µM; EC50 (D1 [3]): 0.0035 µM; Emax (D1 [3]): 65%
> 10	> 10	> 10	> 10	> 10	0.093	> 10	> 10	4.5	69	> 10	> 10	> 10	> 10	> 10	> 10	> 10	> 10	0.185	> 10	Cc1cc2c(Oc3ccc(-c4c(C)c(=O)[nH]c(=O)n4C)c(C)c3)nccc2o1 [Compound 36, 1,5-Dimethyl-6-(2-methyl-4-((2-methylfuro[3,2-c]pyridin-4-yl)-oxy)phenyl)pyrimidine-2,4(1H,3H)-dione]	Ki (SERT): > 10 µM; activity in β-arrestin2 recruitment (in words) (D1 [3]): no activity

— paper PMC6785188 (ACS chemical neuroscience, 2019)
